From patent US11311522B1 (Cavion, Inc., priority 2018, dated 2022)

Legend:
[1] = 7-day dose-range-finding toxicology in female rats
[2] = system: patients with essential tremor; experiment: T-CALM: TETRAS-PS spiral task (item 6); assay type: in vivo, human
Description: The Archimedes spiral item of the TETRAS-PS subscale (Item 6) incorporates a routine clinical assessment of functional tremor impact into the TETRAS scoring of tremor severity. […] The investigator then asks the subject to copy the spiral. Each hand is tested and scored separately. […] The tremor in the spiral is scored, not the movement of the limb.
Scores for TETRAS-PS subscale item 6 were summed for both hands and the mean change from baseline was calculated for Day 15 and Day 28 (FIG. 4 and Table 4). Statistical significance was calculated by Mann-Whitney non-parametric t-test (two tailed).

Cav3 = system: T1, Cav3; experiment: Cav3 potency and state dependency, summary of Cav3 antagonist pharmacological properties; assay type: cell-based
T1 construct: rows headed: Cav3 potency

hERG [3] = molecular target: T2, hERG (Homo sapiens, UniProt Q12809); experiment: hERG PatchXpress assay; assay type: cell-based; conditions: doses up to 30 μM
T2 construct: expressed in transfected cells; host or cells: CHO-K1

hERG [4] = molecular target: T2, hERG; experiment: hERG whole-cell voltage-clamp (CHO-K1 cells); assay type: cell-based; conditions: hERG current
[5] = doses up to 20 μM
[6] = system: T3, CYP3A4, CYP2C8, CYP2C9, CYP2D6, CYP1A2, CYP2C19, CYP2B6; experiment: CYP inhibition in human liver microsomes; assay type: in vitro ADME; conditions: human, human liver microsomes
T3 construct: other: human liver microsomes; other: human microsomes

[7] = system: T4, major CYP isoforms (CYP1A2, CYP3A4, CYP2C8, CYP2C9, CYP2C19, CYP2D6, CYP2B6); experiment: CYP inhibition in human liver microsomes; assay type: in vitro ADME; conditions: human liver microsomes; human microsomes
T4 construct: other: human liver microsomes; other: human microsomes

[8] = system: patients with essential tremor; experiment: T-CALM: adverse events, discontinuations, ECG; assay type: in vivo, human
Description: T-CALM employed the following dose titration scheme: Week 1 at 4 mg BID (8 mg/day), Week 2 at 8 mg BID (16 mg/day) and Weeks 3 & 4 at 10 mg BID (20 mg/day). […] Adverse Events were coded using MedDRA V20.0. Only treatment emergent adverse events with an onset date and time after the initiation of study drug until 30 days after discontinuation of drug were reported. For subjects who experience the same coded event more than once, a single event was presented. Adverse events were attributed to a study week based on the onset date, i.e. events that started on or after Visit 1 and prior to Visit 2 were classified as Study Week 1.
Electrocardiogram results were calculated as the average of the triplicate records at each time point. Baseline was defined as the mean of the triplicate values obtained pre-dose at Day 1. If this value was not available, the mean of the triplicate records obtained at screening were used.
Adverse events are characterized by maximum severity, drug-related adverse events, serious adverse events and adverse events leading to discontinuation of study.
Safety procedures involved collection of all TEAEs (treatment-emergent adverse events) coded into the Medical Dictionary for Regulatory Activities (MedDRA) version 20. Adverse events were classified by maximum severity, drug-related adverse events, serious adverse events, and adverse events leading to patient discontinuation.

[9] = rat, in vivo, 300 mg/kg/day
[10] = MR2 capsules fed versus fasted PK; assay type: in vivo; conditions: human, plasma, oral, 8 mg, single dose (1×8 mg) of MR2 CX-8998
From the text: Subjects will be screened for study eligibility within 28 days before administration of the first dose of study drug. Subjects who meet the study eligibility criteria will be admitted to the clinical research unit in the afternoon of the day before administration of the first dose of study drug (Period 1/Day −1).

in vivo = conditions: male, Beagle, dog, plasma, po, 20 mg/kg/day
[11] = system: patients with essential tremor; experiment: T-CALM: PK/PD, Cmin versus TETRAS-PS (Hill equation); assay type: in vivo, human
From the text: Pharmacodynamic variables (Response) evaluated included change from baseline in TETRAS performance subscale, TETRAS activities of daily living, TETRAS total score.

[12] = human, CHO-K1 cells expressing hERG

T2 sequence (Q12809 whole entry): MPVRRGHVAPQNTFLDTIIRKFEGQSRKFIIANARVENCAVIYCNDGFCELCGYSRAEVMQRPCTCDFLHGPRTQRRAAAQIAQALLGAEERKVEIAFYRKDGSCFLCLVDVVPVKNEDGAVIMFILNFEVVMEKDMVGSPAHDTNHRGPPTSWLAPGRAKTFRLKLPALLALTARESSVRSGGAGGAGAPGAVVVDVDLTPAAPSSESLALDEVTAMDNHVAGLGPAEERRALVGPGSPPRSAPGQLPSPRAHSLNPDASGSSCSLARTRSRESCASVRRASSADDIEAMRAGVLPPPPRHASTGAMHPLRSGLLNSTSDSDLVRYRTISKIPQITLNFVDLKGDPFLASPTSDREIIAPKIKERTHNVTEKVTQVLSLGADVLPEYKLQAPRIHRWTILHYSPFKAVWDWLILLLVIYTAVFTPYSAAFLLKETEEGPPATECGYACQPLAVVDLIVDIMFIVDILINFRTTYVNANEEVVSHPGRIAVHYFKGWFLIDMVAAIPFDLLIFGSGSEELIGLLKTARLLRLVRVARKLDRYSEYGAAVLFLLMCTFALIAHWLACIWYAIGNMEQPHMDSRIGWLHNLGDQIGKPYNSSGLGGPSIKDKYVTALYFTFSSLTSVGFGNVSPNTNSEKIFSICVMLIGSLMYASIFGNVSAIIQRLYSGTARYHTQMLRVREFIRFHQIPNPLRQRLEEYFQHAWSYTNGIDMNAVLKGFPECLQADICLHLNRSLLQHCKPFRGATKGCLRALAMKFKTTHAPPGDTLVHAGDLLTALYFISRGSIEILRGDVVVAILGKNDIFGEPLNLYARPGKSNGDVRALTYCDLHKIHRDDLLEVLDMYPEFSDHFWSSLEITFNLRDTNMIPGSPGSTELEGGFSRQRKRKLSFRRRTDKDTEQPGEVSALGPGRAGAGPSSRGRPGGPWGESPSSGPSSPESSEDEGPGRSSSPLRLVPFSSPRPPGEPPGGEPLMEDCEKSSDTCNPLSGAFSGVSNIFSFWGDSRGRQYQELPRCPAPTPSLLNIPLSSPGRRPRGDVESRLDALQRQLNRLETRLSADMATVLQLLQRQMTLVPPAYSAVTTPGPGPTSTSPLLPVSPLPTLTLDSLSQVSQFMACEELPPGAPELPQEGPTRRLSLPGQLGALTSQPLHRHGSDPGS

With `CC(C)c1ccc(CC(=O)N[C@H](C)c2ccc(OCC(F)(F)F)cn2)cc1` [CX-8998] the NOEL ([1]; Sprague-Dawley rat, 7-day exploratory toxicity, oral gavage) was 500 mg/kg/day, the “findings indicative of dose-limiting toxicity” value ([1]; Sprague-Dawley rat, 10, 100, or 500 mg/kg/day oral gavage for 7 days) was “No findings” and the “Change from baseline in TETRAS-PS spiral item, mean” value ([2]; Day 15 (8 mg BID)) was −0.41. For the same molecule, the “Change from baseline in TETRAS-PS spiral item, mean” value ([2]; Day 28 (10 mg BID)) was −0.658, the IC50 (Cav3) was 0.07 to 0.1 µM and the IC50 (hERG [3]) was 28 µM. The IC20 (hERG [3]; [12]) was 8.7 µM, the IC50 (hERG [4]) was 21 µM and the IC20 (hERG [4]; [12]) was 4 µM. The “Alkaline elution assay result” value [5] was “negative”, the IC50 [6] was 20 to 25 µM and the IC50 [7] was > 25 µM. For the same molecule, the “Discontinuation due to Nervous System Disorders, subjects n (%)” value ([8]; N = 48) was 4 (8%), the “Discontinuation due to Psychiatric Disorders, subjects n (%)” value ([8]; N = 48) was 4 (8%) and the “Dosage reduced Due to adverse event, subjects n (%)” value ([8]; N = 48) was 3 (6%). For the same molecule, the “Dosage reduced during study, subjects n (%)” value ([8]; N = 48) was 4 (8%), the “Subjects with at least 1 event leading to discontinuation, n (%)” value ([8]; N = 48) was 8 (17%) and the “Dosage reduced Due to other reasons, subjects n (%)” value ([8]; N = 48, subject had inadequate drug supply at Visit 4) was 1 (2%)^3. For the same molecule, the “TEAE Abnormal dreams, subjects n (%)” value ([8]; Safety Analysis Set, n = 48) was 2 (4%), the “TEAE Disturbance in attention, subjects n (%)” value ([8]; Safety Analysis Set, n = 48) was 2 (4%) and the “TEAE Dizziness, subjects n (%)” value ([8]; Safety Analysis Set, n = 48) was 10 (21%). The “TEAE Dry mouth, subjects n (%)” value ([8]; Safety Analysis Set, n = 48) was 2 (4%), the “TEAE Dysgeusia, subjects n (%)” value ([8]; Safety Analysis Set, n = 48) was 2 (4%) and the “TEAE Ear and Labyrinth Disorders (system organ class), subjects n (%)” value ([8]; Safety Analysis Set, n = 48) was 2 (4%). For the same molecule, the “TEAE Euphoric mood, subjects n (%)” value ([8]; Safety Analysis Set, n = 48) was 3 (6%), the “TEAE Gastrointestinal Disorders (system organ class), subjects n (%)” value ([8]; Safety Analysis Set, n = 48) was 9 (19%) and the “TEAE Hallucination, subjects n (%)” value ([8]; Safety Analysis Set, n = 48) was 2 (4%). For the same molecule, the “TEAE Headache, subjects n (%)” value ([8]; Safety Analysis Set, n = 48) was 4 (8%), the “TEAE Hypesthesia, subjects n (%)” value ([8]; Safety Analysis Set, n = 48) was 0 and the “TEAE Infections and Infestations (system organ class), subjects n (%)” value ([8]; Safety Analysis Set, n = 48) was 4 (8%). For the same molecule, the “TEAE Insomnia, subjects n (%)” value ([8]; Safety Analysis Set, n = 48) was 3 (6%), the “TEAE Nausea, subjects n (%)” value ([8]; Safety Analysis Set, n = 48) was 1 (2%) and the “TEAE Nervous System Disorders (system organ class), subjects n (%)” value ([8]; Safety Analysis Set, n = 48) was 20 (42%). The “TEAE Paraesthesia, subjects n (%)” value ([8]; Safety Analysis Set, n = 48) was 2 (4%), the “TEAE Somnolence, subjects n (%)” value ([8]; Safety Analysis Set, n = 48) was 1 (2%) and the “TEAE Tinnitus, subjects n (%)” value ([8]; Safety Analysis Set, n = 48) was 2 (4%). The “TEAE Urinary Tract Infection, subjects n (%)” value ([8]; Safety Analysis Set, n = 48) was 2 (4%), the “TEAE Vomiting, subjects n (%)” value ([8]; Safety Analysis Set, n = 48) was 0 and the “Subjects with at least 1 treatment-emergent adverse event, n (%)” value ([8]; Safety Analysis Set, n = 48, titrated up to 10 mg BID, 4 weeks) was 28 (58%). For the same molecule, the “Adverse Event (MedDRA Preferred Term) leading to dosage reduction” value (from here on “Adverse Event … to dosage reduction”) ([8]; Subject 26-001, Study Day 25, from 10 mg BID to 8 mg BID, Completed study) was “Anxiety”, the “Adverse Event … to dosage reduction” value ([8]; Subject 31-023, Study Day 8, from 8 mg BID to 4 mg BID, Withdrawn (Day 8), term wraps over r24-r26: Electrocardiogram T-wave abnormal) was “Electrocardio-” and the “Adverse Event … to dosage reduction” value ([8]; Subject 33-004, Study Day 8, from 4 mg BID to 2 mg BID, Withdrawn (Day 45) Lost to follow-up) was “Headache”. The Abnormal dreams ([8]; TEAE, n = 48) was 2 (4%) n (%), the Disturbance in attention ([8]; TEAE, n = 48) was 2 (4%) n (%) and the Dizziness ([8]; TEAE, n = 48) was 10 (21%) n (%). For the same molecule, the Dry mouth ([8]; TEAE, n = 48) was 2 (4%) n (%), the Dysgeusia ([8]; TEAE, n = 48) was 2 (4%) n (%) and the “Ear and Labyrinth Disorders” value ([8]; TEAE, n = 48) was 2 (4%) n (%). For the same molecule, the Euphoric mood ([8]; TEAE, n = 48) was 3 (6%) n (%), the “Gastrointestinal Disorders” value ([8]; TEAE, n = 48) was 9 (19%) n (%) and the Hallucination ([8]; TEAE, n = 48) was 2 (4%) n (%). The Headache ([8]; TEAE, n = 48) was 4 (8%) n (%), the Hypesthesia ([8]; TEAE, n = 48) was 0 n (%) and the “Infections and Infestations” value ([8]; TEAE, n = 48) was 4 (8%) n (%). For the same molecule, the Insomnia ([8]; TEAE, n = 48) was 3 (6%) n (%), the Nausea ([8]; TEAE, n = 48) was 1 (2%) n (%) and the “Nervous System Disorders” value ([8]; TEAE, n = 48) was 20 (42%) n (%). The Paraesthesia ([8]; TEAE, n = 48) was 2 (4%) n (%), the Somnolence ([8]; TEAE, n = 48) was 1 (2%) n (%) and the Tinnitus ([8]; TEAE, n = 48) was 2 (4%) n (%). For the same molecule, the “Urinary Tract Infection” value ([8]; TEAE, n = 48) was 2 (4%) n (%), the Vomiting ([8]; TEAE, n = 48) was 0 n (%) and the “Discontinuation due to adverse events” value ([8]; in vivo) was 8 (17%) n (%). For the same molecule, the “Dosage reduction due to TEAEs” value ([8]; in vivo) was 6%, the Electrocardiogram outlier analysis ([8]; in vivo) was “no CVS safety signals” and the “Decrease in food consumption” value [9] was “up to 19%”. For the same molecule, the AUC [10] was 7.57 µM·h, the AUC (in vivo) was 425 µM·h and the “Emax, change from baseline in TETRAS-PS” value ([11]; Cmin at steady state) was “approximately −4.1”. It also gave an EC50 ([11]; Homo sapiens, TETRAS-PS) of ~0.25 µM.
